ChEMBL document CHEMBL2074135, “Recognition of L-amino acid ester compounds by rat peptide transporters PEPT1 and PEPT2” (J Pharmacol Exp Ther, 1999)

Columns and labels:
Assay type in all cases: functional, cell-based
[1] = target: T1, Solute carrier family 15 member 1 (Rattus norvegicus) (UniProt P51574); assay: TP_TRANSPORTER: inhibition of Gly-Sar uptake (Gly-Sar: 20 uM, Val-OBzl: 10000 uM) in PEPT1-expressing LLC-PK1 cells
T1 sequence (whole entry): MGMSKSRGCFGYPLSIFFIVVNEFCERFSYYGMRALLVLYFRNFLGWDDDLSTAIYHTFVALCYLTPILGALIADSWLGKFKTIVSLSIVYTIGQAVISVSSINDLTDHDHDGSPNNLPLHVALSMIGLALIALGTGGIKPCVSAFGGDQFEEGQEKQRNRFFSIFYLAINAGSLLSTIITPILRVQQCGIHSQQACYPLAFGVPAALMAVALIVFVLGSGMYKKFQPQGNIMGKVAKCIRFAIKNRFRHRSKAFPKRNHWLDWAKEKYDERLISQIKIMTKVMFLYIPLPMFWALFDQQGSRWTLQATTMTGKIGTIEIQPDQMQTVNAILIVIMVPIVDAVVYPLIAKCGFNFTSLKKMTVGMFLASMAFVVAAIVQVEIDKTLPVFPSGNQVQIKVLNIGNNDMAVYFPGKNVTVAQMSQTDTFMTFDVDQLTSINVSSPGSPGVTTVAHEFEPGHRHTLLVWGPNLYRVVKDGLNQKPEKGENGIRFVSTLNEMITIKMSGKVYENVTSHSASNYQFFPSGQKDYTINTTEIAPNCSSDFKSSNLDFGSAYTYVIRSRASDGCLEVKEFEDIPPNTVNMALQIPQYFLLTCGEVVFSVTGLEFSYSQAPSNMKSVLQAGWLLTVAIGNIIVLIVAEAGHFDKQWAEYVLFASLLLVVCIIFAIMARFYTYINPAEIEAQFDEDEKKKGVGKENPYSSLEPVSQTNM

[2] = target: T2, Solute carrier family 15 member 2 (Rattus norvegicus) (UniProt Q63424); assay: TP_TRANSPORTER: inhibition of Gly-Sar uptake (Gly-Sar: 20 uM, Val-OBzl: 10000 uM) in PEPT2-expressing LLC-PK1 cells
T2 sequence (whole entry): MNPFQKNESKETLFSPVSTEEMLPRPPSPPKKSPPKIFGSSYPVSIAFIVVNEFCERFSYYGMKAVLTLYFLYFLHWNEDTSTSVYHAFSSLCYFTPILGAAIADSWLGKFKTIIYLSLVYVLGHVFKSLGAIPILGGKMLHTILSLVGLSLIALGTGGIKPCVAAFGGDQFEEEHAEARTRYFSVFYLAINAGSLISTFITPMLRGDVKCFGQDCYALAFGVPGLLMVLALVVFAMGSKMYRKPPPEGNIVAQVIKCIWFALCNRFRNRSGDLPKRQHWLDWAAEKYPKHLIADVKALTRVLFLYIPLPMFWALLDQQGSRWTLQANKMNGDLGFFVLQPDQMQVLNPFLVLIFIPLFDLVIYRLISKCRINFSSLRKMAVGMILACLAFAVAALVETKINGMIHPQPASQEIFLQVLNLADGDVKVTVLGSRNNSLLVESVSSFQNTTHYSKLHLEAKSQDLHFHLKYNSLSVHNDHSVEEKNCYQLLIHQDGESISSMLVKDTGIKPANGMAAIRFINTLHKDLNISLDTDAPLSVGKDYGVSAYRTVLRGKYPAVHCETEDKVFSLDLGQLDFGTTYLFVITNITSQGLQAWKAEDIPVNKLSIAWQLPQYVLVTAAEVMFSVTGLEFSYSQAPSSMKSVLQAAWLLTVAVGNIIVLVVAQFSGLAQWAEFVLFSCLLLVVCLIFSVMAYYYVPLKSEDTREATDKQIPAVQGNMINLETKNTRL

[3] = target: T2, Solute carrier family 15 member 2 (Rattus norvegicus); assay: TP_TRANSPORTER: inhibition of Gly-Sar uptake (Gly-Sar: 20 uM, Gly-OMe: 10000 uM) in PEPT2-expressing LLC-PK1 cells
[4] = target: T1, Solute carrier family 15 member 1 (Rattus norvegicus); assay: TP_TRANSPORTER: inhibition of Gly-Sar uptake (Gly-Sar: 20 uM, Gly-OMe: 10000 uM) in PEPT1-expressing LLC-PK1 cells
[5] = target: T2, Solute carrier family 15 member 2 (Rattus norvegicus); assay: TP_TRANSPORTER: inhibition of Gly-Sar uptake (Gly-Sar: 20 uM, Ala-OMe: 10000 uM) in PEPT2-expressing LLC-PK1 cells
[6] = target: T1, Solute carrier family 15 member 1 (Rattus norvegicus); assay: TP_TRANSPORTER: inhibition of Gly-Sar uptake (Gly-Sar: 20 uM, Ala-OMe: 10000 uM) in PEPT1-expressing LLC-PK1 cells
[7] = target: T2, Solute carrier family 15 member 2 (Rattus norvegicus); assay: TP_TRANSPORTER: inhibition of Gly-Sar uptake (Gly-Sar: 20 uM, Tyr-OMe: 10000 uM) in PEPT2-expressing LLC-PK1 cells
[8] = target: T2, Solute carrier family 15 member 2 (Rattus norvegicus); assay: TP_TRANSPORTER: inhibition of Gly-Sar uptake (Gly-Sar: 20 uM, Leu-OMe: 10000 uM) in PEPT2-expressing LLC-PK1 cells
[9] = target: T1, Solute carrier family 15 member 1 (Rattus norvegicus); assay: TP_TRANSPORTER: inhibition of Gly-Sar uptake (Gly-Sar: 20 uM, Leu-OMe: 10000 uM) in PEPT1-expressing LLC-PK1 cells
[10] = substrate: CN(CC(=O)O)C(=O)CN; assay: TP_TRANSPORTER: uptake in PEPT1-expressing LLC-PK1 cells
[11] = substrate: CN(CC(=O)O)C(=O)CN; assay: TP_TRANSPORTER: uptake in PEPT2-expressing LLC-PK1 cells

## CC(C)[C@H](N)C(=O)OCc1ccccc1
[1]
  Activity: inhibitor [+]
[2]
  Activity: inhibitor [+]

## COC(=O)CN
[3]
  Activity: inhibitor [+]
[4]
  Activity: inhibitor [+]

## COC(=O)[C@H](C)N
[5]
  Activity: inhibitor [+]
[6]
  Activity: inhibitor [+]

## COC(=O)[C@@H](N)Cc1ccc(O)cc1
[7]
  Activity: inhibitor [+]

## COC(=O)[C@@H](N)CC(C)C
[8]
  Activity: inhibitor [+]
[9]
  Activity: inhibitor [+]

B1: Solute carrier family 15 member 1 (Rattus norvegicus), P51574 (protein)
chain: MGMSKSRGCFGYPLSIFFIVVNEFCERFSYYGMRALLVLYFRNFLGWDDDLSTAIYHTFVALCYLTPILGALIADSWLGKFKTIVSLSIVYTIGQAVISVSSINDLTDHDHDGSPNNLPLHVALSMIGLALIALGTGGIKPCVSAFGGDQFEEGQEKQRNRFFSIFYLAINAGSLLSTIITPILRVQQCGIHSQQACYPLAFGVPAALMAVALIVFVLGSGMYKKFQPQGNIMGKVAKCIRFAIKNRFRHRSKAFPKRNHWLDWAKEKYDERLISQIKIMTKVMFLYIPLPMFWALFDQQGSRWTLQATTMTGKIGTIEIQPDQMQTVNAILIVIMVPIVDAVVYPLIAKCGFNFTSLKKMTVGMFLASMAFVVAAIVQVEIDKTLPVFPSGNQVQIKVLNIGNNDMAVYFPGKNVTVAQMSQTDTFMTFDVDQLTSINVSSPGSPGVTTVAHEFEPGHRHTLLVWGPNLYRVVKDGLNQKPEKGENGIRFVSTLNEMITIKMSGKVYENVTSHSASNYQFFPSGQKDYTINTTEIAPNCSSDFKSSNLDFGSAYTYVIRSRASDGCLEVKEFEDIPPNTVNMALQIPQYFLLTCGEVVFSVTGLEFSYSQAPSNMKSVLQAGWLLTVAIGNIIVLIVAEAGHFDKQWAEYVLFASLLLVVCIIFAIMARFYTYINPAEIEAQFDEDEKKKGVGKENPYSSLEPVSQTNM
[10]
  Km: 1900 µM

B2: Solute carrier family 15 member 2 (Rattus norvegicus), Q63424 (protein)
chain: MNPFQKNESKETLFSPVSTEEMLPRPPSPPKKSPPKIFGSSYPVSIAFIVVNEFCERFSYYGMKAVLTLYFLYFLHWNEDTSTSVYHAFSSLCYFTPILGAAIADSWLGKFKTIIYLSLVYVLGHVFKSLGAIPILGGKMLHTILSLVGLSLIALGTGGIKPCVAAFGGDQFEEEHAEARTRYFSVFYLAINAGSLISTFITPMLRGDVKCFGQDCYALAFGVPGLLMVLALVVFAMGSKMYRKPPPEGNIVAQVIKCIWFALCNRFRNRSGDLPKRQHWLDWAAEKYPKHLIADVKALTRVLFLYIPLPMFWALLDQQGSRWTLQANKMNGDLGFFVLQPDQMQVLNPFLVLIFIPLFDLVIYRLISKCRINFSSLRKMAVGMILACLAFAVAALVETKINGMIHPQPASQEIFLQVLNLADGDVKVTVLGSRNNSLLVESVSSFQNTTHYSKLHLEAKSQDLHFHLKYNSLSVHNDHSVEEKNCYQLLIHQDGESISSMLVKDTGIKPANGMAAIRFINTLHKDLNISLDTDAPLSVGKDYGVSAYRTVLRGKYPAVHCETEDKVFSLDLGQLDFGTTYLFVITNITSQGLQAWKAEDIPVNKLSIAWQLPQYVLVTAAEVMFSVTGLEFSYSQAPSSMKSVLQAAWLLTVAVGNIIVLVVAQFSGLAQWAEFVLFSCLLLVVCLIFSVMAYYYVPLKSEDTREATDKQIPAVQGNMINLETKNTRL
[11]
  Km: 90 µM
